# Measured values from patent US7632829B2, “Diazepan derivatives” (Hoffmann-La Roche Inc., priority 2006, dated 2009).
# Where a name gives a salt, the structure may show the parent alone.
# Molecular target: T1, human chemokine receptor 2 isoform B (Homo sapiens, UniProt P41597)
# T1 construct: host or cells: CHOK1-CCR2B-A5 (CHO-K1)
# T1 sequence (P41597 1-360 isoform P41597-2): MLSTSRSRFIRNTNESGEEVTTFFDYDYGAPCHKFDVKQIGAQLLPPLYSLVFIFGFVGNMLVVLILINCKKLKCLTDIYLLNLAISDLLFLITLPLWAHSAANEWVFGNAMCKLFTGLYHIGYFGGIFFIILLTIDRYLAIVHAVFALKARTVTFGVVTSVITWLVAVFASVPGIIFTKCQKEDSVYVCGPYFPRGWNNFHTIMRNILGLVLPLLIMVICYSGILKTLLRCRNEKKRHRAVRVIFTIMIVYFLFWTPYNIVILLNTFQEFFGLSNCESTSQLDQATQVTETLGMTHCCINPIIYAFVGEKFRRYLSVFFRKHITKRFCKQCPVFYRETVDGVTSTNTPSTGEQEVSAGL
# Assay: Calcium mobilization assay (FLIPR, CHOK1-CCR2B-A5 cells, 20 nM MCP-1)
# Format: cell-based
# Settings: Ca mobilisation assay, CCR2, antagonist activity vs 20 nM MCP-1
# Procedure: CHOK1-CCR2B-A5 cells (from Euroscreen) stably overexpressing the human chemokine receptor 2 isoform B were cultured in Nutrient Hams F12 medium supplemented with 5% FBS, 100 U/ml penicillin, 100 μg/ml streptomycin, 400 μg/ml G418 and 5 μg/ml puromycin.
# For the assay cells were grown overnight in 384-well black clear flat bottom polystyrene plates (Costar) at 37° C. at 5% CO2. After washing with DMEM, 20 mM Hepes, 2.5 mM probenecid, 0.1% BSA (DMEM assay buffer) cells were loaded with 4 μM Fluo-4 in the same DMEM assay buffer for 2 hours at 30° C. Excess dye was removed and cells were washed with DMEM assay buffer. 384-well compound plates were prepared with DMEM assay buffer/0.5% DMSO with or without various concentrations of test compounds. Usually compounds were tested for agonist and antagonist activity.
# Test compounds were added to the assay plate and agonist activity was monitored as fluorescence for 80 seconds with a FLIPR (488 nm excitation; 510-570 nm emission; Molecular Devices). After 20-30 min. of incubation at 30° C., 20 nM MCP-1 (R&D; Roche) was added and fluorescence was monitored again for 80 seconds. Increases in intracellular calcium are reported as maximum fluorescence after agonist exposure minus basal fluorescence before exposure. Antagonist activity is indicated as inhibitor concentration required for 50% inhibition of specific calcium increases.
row,IC50 [nM],SMILES
1,13,"C[C@@H]1C[C@H](O)CN(C[C@H](O)CN2CCN(C(=O)/C=C/c3ccc(Cl)c(Cl)c3)CCC2=O)C1 (mixture of isomers) [Example 335, 1-[(E)-3-(3,4-Dichloro-phenyl)-acryloyl]-4-[(S)-2-hydroxy-3-(cis-3-hydroxy-5-methyl-piperidin-1-yl)-propyl]-[1,4]diazepan-5-one]"
2,71,"O=C(/C=C/c1ccc(F)c(Cl)c1)N1CCC(=O)N(C[C@@H](O)CN2CC[C@H](CO)[C@H](O)C2)CC1 (mixture of isomers) [Example 337, 1-[(E)-3-(3-Chloro-4-fluoro-phenyl)-acryloyl]-4-[(S)-2-hydroxy-3-(cis-3-hydroxy-4-hydroxymethyl-piperidin-1-yl)-propyl]-[1,4]diazepan-5-one]"
3,553,"COC[C@H]1CCN(C[C@H](O)CN2CCN(C(=O)/C=C/c3ccc(F)c(Cl)c3)CCC2=O)C[C@H]1O (mixture of isomers) [Example 338, 1-[(E)-3-(3-Chloro-4-fluoro-phenyl)-acryloyl]-4-[(S)-2-hydroxy-3-(cis-3-hydroxy-4-methoxymethyl-piperidin-1-yl)-propyl]-[1,4]diazepan-5-one]"
4,1360,"O=C(/C=C/c1ccc(F)c(Cl)c1)N1CCC(=O)N(C[C@@H](O)CN2CC[C@@H](CO)[C@H](O)C2)CC1 (mixture of isomers) [Example 339, 1-[(E)-3-(3-Chloro-4-fluoro-phenyl)-acryloyl]-4-[(S)-2-hydroxy-3-(trans-3-hydroxy-4-hydroxymethyl-piperidin-1-yl)-propyl]-[1,4]diazepan-5-one]"
5,26,"C[C@@H]1C[C@H](O)CN(C[C@H](O)CN2CCN(C(=O)/C=C/c3ccc(F)c(Cl)c3)CCC2=O)C1 (mixture of isomers) [Example 344, 1-[(E)-3-(3-Chloro-4-fluoro-phenyl)-acryloyl]-4-[(S)-2-hydroxy-3-(cis-3-hydroxy-5-methyl-piperidin-1-yl)-propyl]-[1,4]diazepan-5-one]"
6,64,"CC1CC(O)CN(CCCCN2CCN(C(=O)C=Cc3ccc(Cl)c(F)c3)CCC2=O)C1 (mixture of isomers) [Example 421, (rac,cis)-1-[(E)-3-(4-Chloro-3-fluoro-phenyl)-acryloyl]-4-[4-(3-hydroxy-5-methyl-piperidin-1-yl)-butyl]-[1,4]diazepan-5-one]"
7,113,"CC1C(O)CCCN1CCCCN1CCN(C(=O)C=Cc2ccc(Cl)c(Cl)c2)CCC1=O (mixture of isomers) [Example 428, (rac,trans)-1-[(E)3-(3,4-Dichloro-phenyl)-acryloyl]-4-[4-(3-hydroxy-2-methyl-piperidin-1-yl)-butyl]-[1,4]diazepan-5-one]"
8,86,"O=C(C=Cc1ccc(Cl)c(Cl)c1)N1CCC(=O)N(CCCCN2CCC(F)C(O)C2)CC1 (mixture of isomers) [Example 429, (rac,trans)-1-[(E)-3-(3,4-Dichloro-phenyl)-acryloyl]-4-[4-(4-fluoro-3-hydroxy-piperidin-1-yl)-butyl]-[1,4]diazepan-5-one]"
9,140,"O=C(C=Cc1ccc(Cl)c(Cl)c1)N1CCC(=O)N(CCCCN2CCC(O)C(F)C2)CC1 (mixture of isomers) [Example 434, (rac,trans)-1-[(E)-3-(3,4-Dichloro-phenyl)-acryloyl]-4-[4-(3-fluoro-4-hydroxy-piperidin-1-yl)-butyl]-[1,4]diazepan-5-one]"
10,13,"CC1CC(O)CN(CCCCN2CCN(C(=O)C=Cc3ccc(Cl)c(Cl)c3)CCC2=O)C1 (mixture of isomers) [Example 482, (rac,cis)-1-[(E)-3-(3,4-Dichloro-phenyl)-acryloyl]-4-[4-(3-hydroxy-5-methyl-piperidin-1-yl)-butyl]-[1,4]diazepan-5-one]"
11,121,"O=C(/C=C/c1ccc(Cl)c(Cl)c1)N1CCC(=O)N(CCCNC2CC3CCC2C3)CC1 (racemic) [Example 38, (+/−)-4-[3-(Bicyclo[2.2.1]hept-2-ylamino)-propyl]-1-[(E)-3-(3,4-dichloro-phenyl)-acryloyl]-[1,4] diazepan-5-one]"
12,646,"CC(=O)NC1CCN(CCCN2CCN(C(=O)/C=C/c3ccc(Cl)c(Cl)c3)CCC2=O)C1 (racemic) [Example 44, (+/−)-N-[1-(E)-(3-{4-[3-(3,4-Dichloro-phenyl)-acryloyl]-7-oxo-[1,4]diazepan-1-yl}-propyl)-pyrrolidin-3-yl]-acetamide]"
13,165,"CC1CCCCN1CCCN1CCN(C(=O)/C=C/c2ccc(Cl)c(Cl)c2)CCC1=O (racemic) [Example 62, (+/−)-1-[(E)-3-(3,4-Dichloro-phenyl)-acryloyl]-4-[3-(2-methyl-piperidin-1-yl)-propyl]-[1,4]diazepan-5-one]"
14,566,"O=C(/C=C/c1ccc(Cl)c(Cl)c1)N1CCC(=O)N(CCCN2CCC(O)C2)CC1 (racemic) [Example 71, (+/−)-1-[(E)-3-(3,4-Dichloro-phenyl)-acryloyl]-4-[3-(3-hydroxy-pyrrolidin-1-yl)-propyl]-[1,4]diazepan-5-one]"
15,263,"COC1CCCN(CCCN2CCN(C(=O)/C=C/c3ccc(Cl)c(Cl)c3)CCC2=O)C1 (racemic) [Example 80, (+/−)-1-[(E)-3-(3,4-Dichloro-phenyl)-acryloyl]-4-[3-(3-methoxy-piperidin-1-yl)-propyl]-[1,4]diazepan-5-one]"
16,1020,"CC1CCCCN1CCN1CCN(C(=O)C=Cc2ccc(Cl)c(Cl)c2)CCC1=O (racemic) [Example 102, (+/−)-1-[(E)-3-(3,4-Dichloro-phenyl)-acryloyl]-4-[3-(2-methyl-piperidin-1-yl)-ethyl]-[1,4]diazepan-5-one]"
17,641,"O=C(C=Cc1ccc(Cl)c(Cl)c1)N1CCC(=O)N(CCNC2CC3CCC2C3)CC1 (racemic) [Example 110, (+/−)-4-[3-(Bicyclo[2.2.1]hept-2-ylamino)ethyl]-1-[(E)-3-(3,4-dichloro-phenyl)-acryloyl]-[1,4]diazepan-5-one]"
18,47,"O=C(/C=C/c1ccc(Cl)c(Cl)c1)N1CCC(=O)N(CCCCN2CCCC(O)C2)CC1 (racemic) [Example 161, 1-[(E)-3-(3,4-Dichloro-phenyl)-acryloyl]-4-[4-(3-hydroxy-piperidin-1-yl)-butyl]-[1,4]diazepan-5-one]"
19,560,"O=C(/C=C/c1ccc(Cl)c(Cl)c1)N1CCC(=O)N(CCCCN2CC[C@H](O)[C@H](O)C2)CC1 (racemic) [Example 163, 1-[(E)-3-(3,4-Dichloro-phenyl)-acryloyl]-4-[4-((3RS,4SR)-3,4-dihydroxy-piperidin-1-yl)-butyl]-[1,4]diazepan-5-one hydrochlorid]"
20,544,"O=C(/C=C/c1ccc(Cl)c(Cl)c1)N1CCC(=O)N(CCCCN2CC[C@@H](O)[C@H](O)C2)CC1 (racemic) [Example 164, 1-[(E)-3-(3,4-Dichloro-phenyl)-acryloyl]-4-[4-((3RS,4RS)-3,4-dihydroxy-piperidin-1-yl)-butyl]-[1,4]diazepan-5-one hydrochloride]"
21,345,"O=C(/C=C/c1ccc(Cl)c(Cl)c1)N1CCC(=O)N(CCCCN2CC[C@@H](O)[C@H](O)C2)CC1 (racemic) [Example 165, 1-[(E)-3-(3,4-Dichloro-phenyl)-acryloyl]-4-[4-((3RS,4RS)-3,4-dihydroxy-piperidin-1-yl)-butyl]-[1,4]diazepan-5-one]"
22,212,"O=C(/C=C/c1ccc(Cl)c(Cl)c1)N1CCC(=O)N(CC(O)CN2CCCCC2)CC1 (racemic) [Example 166, (rac)-1-[(E)-3-(3,4-Dichloro-phenyl)-acryloyl]-4-(2-hydroxy-3-piperidin-1-yl-propyl)-[1,4]diazepan-5-one]"
23,255,"O=C(/C=C/c1ccc(Cl)c(Cl)c1)N1CCC(=O)N(CC(O)CN2CCC(F)CC2)CC1 (racemic) [Example 169, (rac)-1-[(E)-3-(3,4-Dichloro-phenyl)-acryloyl]-4-[3-(4-fluoro-piperidin-1-yl)-2-hydroxy-propyl]-[1,4]diazepan-5-one]"
24,448,"O=C(/C=C/c1ccc(Cl)c(Cl)c1)N1CCC(=O)N(CCC(O)CN2CCCCC2)CC1 (racemic) [Example 170, (rac)-1-[(E)-3-(3,4-Dichloro-phenyl)-acryloyl]-4-(3-hydroxy-4-piperidin-1-yl-butyl)-[1,4]diazepan-5-one]"
25,995,"O=C(/C=C/c1ccc(Cl)c(Cl)c1)N1CCC(=O)N(CCC(O)CN2CCCC(O)C2)CC1 (racemic) [Example 171, (rac)-1-[(E)-3-(3,4-Dichloro-phenyl)-acryloyl]-4-[3-hydroxy-4-(3-hydroxy-piperidin-1-yl)-butyl]-[1,4]diazepan-5-one]"
26,954,"O=C(/C=C/c1ccc(F)c(F)c1)N1CCC(=O)N(CC(O)CN2CCCCC2)CC1 (racemic) [Example 177, (rac)-1-[(E)-3-(3,4-Difluoro-phenyl)-acryloyl]-4-(2-hydroxy-3-piperidin-1-yl-propyl)-[1,4]diazepan-5-one]"
